One experiment concerns GDF8. As to the kind of experiment: AlphaScreen SureFire p-SMAD3 (Ser423/425) assay, GDF8-stimulated cells. It is filed as cell-based. The note with it: Mus musculus, MPC-11; p-SMAD3 (Ser423/425) AlphaScreen in cell lysate; MPC11; GDF8 stimulation; read-out: GDF8: inhibition of GDF8 signaling, GDF pSMAD (MPC11). A digest of the protocol: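 A SureFire AlphaScreen assay measured phosphorylation of endogenous SMAD-3 at Ser423/425 in cell lysates. Cells were treated with three-fold serially diluted compounds in DMSO for about 10 minutes, then stimulated with GDF8. After medium removal, cells were lysed in 1× Lysis Buffer (about 25 μL) with gentle shaking for 5-10 minutes.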

Another experiment relates to TGF-β. In words: AlphaScreen SureFire p-SMAD3 (Ser423/425) assay, TGF-β-stimulated cells. It is filed as cell-based. The conditions noted are these: Mus musculus; p-SMAD3 (Ser423/425) AlphaScreen in cell lysate; MPC-11; TGF-β stimulation; read-out: TGF-β: inhibition of TGF-β signaling, TGF-β pSMAD (MPC-11). An outline of the steps: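 The p-SMAD-3 (Ser423/425) SureFire assay measured phosphorylation of endogenous SMAD-3 in cell lysates. Cells were plated overnight in collagen-coated plates, exposed to three-fold serially diluted compounds for about 10 minutes, then stimulated with TGFβ. Lysates (5 μL) received acceptor bead mix for 2 hours, then donor beads for 1½ hours before AlphaScreen reading.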

Consider `Fc1cc(F)c(F)c(-c2nc3n(c2-c2ccc4nccnc4c2)CCC3)c1` [Compound 238, 6-(2-(2,3,5-trifluorophenyl)-6,7-dihydro-5H-pyrrolo[1,2-a]imidazol-3-yl)quinoxaline], for which the IC50 in the experiment on GDF8 and with TGF-β was 0.1 to 1 µM throughout.
With `Fc1cc(-c2nc3n(c2-c2ccc4[nH]ncc4c2)CCC3)c(F)cc1Cl` [Compound 239, 5-(2-(4-chloro-2,5-difluorophenyl)-6,7-dihydro-5H-pyrrolo[1,2-a]imidazol-3-yl)-1H-indazole], the IC50 in the experiment on GDF8 and in the experiment with TGF-β was over 1 µM in each case.
Take `Fc1cc(-c2nc3n(c2-c2ccc4ncsc4c2)CCC3)c(F)cc1Cl` [Compound 240, 6-(2-(4-chloro-2,5-difluorophenyl)-6,7-dihydro-5H-pyrrolo[1,2-a]imidazol-3-yl)benzo[d]thiazole]: the results for the IC50 in the experiment on GDF8 and in the experiment with TGF-β were 0.1 to 1 µM and over 1 µM, respectively.
The corresponding values for `Fc1cc(-c2nc3n(c2-c2ccc4nccnc4c2)CCC3)c(F)cc1Cl` [Compound 241, 6-(2-(4-chloro-2,5-difluorophenyl)-6,7-dihydro-5H-pyrrolo[1,2-a]imidazol-3-yl)quinoxaline] are over 1 µM and over 1 µM.
For the compound `Fc1cc(-c2nc3n(c2-c2ccc4ncccc4c2)CCC3)c(F)cc1Cl` [Compound 242, 6-(2-(4-chloro-2,5-difluorophenyl)-6,7-dihydro-5H-pyrrolo[1,2-a]imidazol-3-yl)quinoline], the IC50 with GDF8 and in the experiment with TGF-β was over 1 µM each time.
`Cc1cc(-c2nc3n(c2-c2ccc4[nH]ncc4c2)CCC3)cc(C)c1Cl` [Compound 243, 5-(2-(4-chloro-3,5-dimethylphenyl)-6,7-dihydro-5H-pyrrolo[1,2-a]imidazol-3-yl)-1H-indazole]: the IC50 in the experiment on GDF8 and with TGF-β was over 1 µM each time.
`Cc1cc(-c2nc3n(c2-c2ccc4ncsc4c2)CCC3)cc(C)c1Cl` [Compound 244, 6-(2-(4-chloro-3,5-dimethylphenyl)-6,7-dihydro-5H-pyrrolo[1,2-a]imidazol-3-yl)benzo[d]thiazole]: the IC50 in the experiment on GDF8 and in the experiment with TGF-β was over 1 µM each time.
Regarding `Cc1cc(-c2nc3n(c2-c2ccc4nccnc4c2)CCC3)cc(C)c1Cl` [Compound 245, 6-(2-(4-chloro-3,5-dimethylphenyl)-6,7-dihydro-5H-pyrrolo[1,2-a]imidazol-3-yl)quinoxaline], the IC50 in the experiment with GDF8 and in the experiment on TGF-β was over 1 µM each time.
For the compound `Cc1cc(-c2nc3n(c2-c2ccc4ncccc4c2)CCC3)cc(C)c1Cl` [Compound 246, 6-(2-(4-chloro-3,5-dimethylphenyl)-6,7-dihydro-5H-pyrrolo[1,2-a]imidazol-3-yl)quinoline], the IC50 with GDF8 and in the experiment with TGF-β was over 1 µM in each case.
Take `Fc1cc(-c2nc3n(c2-c2ccc4ncccc4c2)CCC3)cc(F)c1F` [Compound 247, 6-(2-(3,4,5-trifluorophenyl)-6,7-dihydro-5H-pyrrolo[1,2-a]imidazol-3-yl)quinoline]: the IC50 in the experiment on GDF8 is 0.1 to 1 µM; in the experiment on TGF-β it was over 1 µM.
As to `Cc1ccc(-c2nc3n(c2-c2ccc4[nH]ncc4c2)CCC3)c(F)c1F` [Compound 248, 5-(2-(2,3-difluoro-4-methylphenyl)-6,7-dihydro-5H-pyrrolo[1,2-a]imidazol-3-yl)-1H-indazole], the IC50 in the experiment with GDF8 and in the experiment with TGF-β was over 1 µM each time.
In the case of `Cc1ccc(-c2nc3n(c2-c2ccc4ncsc4c2)CCC3)c(F)c1F` [Compound 249, 6-(2-(2,3-difluoro-4-methylphenyl)-6,7-dihydro-5H-pyrrolo[1,2-a]imidazol-3-yl)benzo[d]thiazole], the IC50 in the experiment on GDF8 and with TGF-β was over 1 µM throughout.
Turning to `Cc1ccc(-c2nc3n(c2-c2ccc4nccnc4c2)CCC3)c(F)c1F` [Compound 250, 6-(2-(2,3-difluoro-4-methylphenyl)-6,7-dihydro-5H-pyrrolo[1,2-a]imidazol-3-yl)quinoxaline], the IC50 in the experiment with GDF8 and in the experiment on TGF-β was over 1 µM each time.
With `Cc1ccc(-c2nc3n(c2-c2ccc4ncccc4c2)CCC3)c(F)c1F` [Compound 251, 6-(2-(2,3-difluoro-4-methylphenyl)-6,7-dihydro-5H-pyrrolo[1,2-a]imidazol-3-yl)quinoline], the IC50 in the experiment on GDF8 and in the experiment on TGF-β was over 1 µM throughout.
For `Cc1cc(-c2nc3n(c2-c2ccc4cn[nH]c4c2)CCC3)c(F)cc1Cl` [Compound 252, 6-(2-(4-chloro-2-fluoro-5-methylphenyl)-6,7-dihydro-5H-pyrrolo[1,2-a]imidazol-3-yl)-1H-indazole], the IC50 in the experiment with GDF8 and with TGF-β was over 1 µM in each case.
With `Cc1cc(-c2nc3n(c2-c2ccc4ncsc4c2)CCC3)c(F)cc1Cl` [Compound 253, 6-(2-(4-chloro-2-fluoro-5-methylpheny)-6,7-dihydro-5H-pyrrolo[1,2-a]imidazol-3-yl)benzo[d]thiazole], the IC50 in the experiment on GDF8 and in the experiment with TGF-β was over 1 µM in each case.
As for `Cc1cc(-c2nc3n(c2-c2ccc4nccnc4c2)CCC3)c(F)cc1Cl` [Compound 254, 6-(2-(4-chloro-2-fluoro-5-methylpheny)-6,7-dihydro-5H-pyrrolo[1,2-a]imidazol-3-yl)quinoxaline], the IC50 with GDF8 and in the experiment on TGF-β was over 1 µM in each case.
Consider `Cc1cc(-c2nc3n(c2-c2ccc4ncccc4c2)CCC3)c(F)cc1Cl` [Compound 255], for which the IC50 in the experiment with GDF8 and with TGF-β was over 1 µM in each case.
Regarding `COc1c(C)cc(-c2nc3n(c2-c2ccc4ncsc4c2)CCC3)cc1C` [Compound 257, 6-(2-(4-methoxy-3,5-dimethylphenyl)-6,7-dihydro-5H-pyrrolo[1,2-a]imidazol-3-yl)benzo[d]thiazole], the IC50 with GDF8 and in the experiment with TGF-β was over 1 µM each time.
On to `COc1c(C)cc(-c2nc3n(c2-c2ccc4nccnc4c2)CCC3)cc1C` [Compound 258, 6-(2-(4-methoxy-3,5-dimethylphenyl)-6,7-dihydro-5H-pyrrolo[1,2-a]imidaol-3-yl)quinoxaline], for which the IC50 in the experiment on GDF8 and with TGF-β was over 1 µM in each case.
For `COc1c(C)cc(-c2nc3n(c2-c2ccc4ncccc4c2)CCC3)cc1C` [Compound 259, 6-(2-(4-methoxy-3,5-dimethylphenyl)-6,7-dihydro-5H-pyrrolo[1,2-a]imidazol-3-yl)quinoline], the IC50 in the experiment on GDF8 and in the experiment on TGF-β was over 1 µM each time.
With `Cc1c(-c2nc3n(c2-c2ccc4ncsc4c2)CCC3)ccc(F)c1F` [Compound 261, 6-(2-(3,4-difluoro-2-methylphenyl)-6,7-dihydro-5H-pyrrolo[1,2-a]imidazol-3-yl)benzo[d]thiazole], the IC50 is 0.1 to 1 µM in the experiment with GDF8 and over 1 µM in the experiment with TGF-β.
In the case of `Cc1c(-c2nc3n(c2-c2ccc4nccnc4c2)CCC3)ccc(F)c1F` [Compound 262, 6-(2-(3,4-difluoro-2-methylphenyl)-6,7-dihydro-5H-pyrrolo[1,2-a]imidazol-3-yl)quinoxaline], the IC50 was 0.1 to 1 µM in the experiment on GDF8 and over 1 µM in the experiment on TGF-β.
Consider `Cc1c(-c2nc3n(c2-c2ccc4ncccc4c2)CCC3)ccc(F)c1F` [Compound 263, 6-(2-(3,4-difluoro-2-methylphenyl)-6,7-dihydro-5H-pyrrolo[1,2-a]imidzaol-3-yl)quinoline], for which the IC50 was 0.1 to 1 µM in the experiment on GDF8 and over 1 µM in the experiment with TGF-β.
